According to US5998477A, “Substituted methoxy benzylidene indenyl-acetic and propionic acids for treating patients with precancerous lesions” (Cell Pathways Inc., priority 1997, dated 1999):
Entries after “also recorded” stand apart in the source; their conditions may differ.

Columns and labels:
[1] = system: DMBA-Induced Mammary Lesions in Organ Culture; assay: Mouse mammary gland organ culture, DMBA-induced mammary lesions; format: cell-based, mouse (BALB/c); details: vs. vehicle (DMSO), read-out: Percent Inhibition
Procedure: The compound of Example No. 1 was also tested for its ability to inhibit the incidence of mammary lesions in an organ culture system. This mouse mammary gland organ culture technique has been successfully used by other investigators to study the effects of known cancer-chemopreventative agents such as retinoids and selenium.
Female BALB/c mice, 28 days old, were treated for nine days with a combination of 1 μg of estradiol and 1 mg of progesterone daily, in order to prime the glands to be responsive to hormones in vitro. The animals were sacrificed and thoracic mammary glands were excised aseptically and incubated for ten days in growth media supplemented with growth-promoting hormones: insulin, prolactin, and hydrocortisone, at 5 μg/ml each and aldosterone at 1 μg/ml. A twenty-four hour treatment of 7,12-dimethylbenz(a)anthracene (DMBA, 2 μg/ml) was carried out between days three and four to induce the formation of mammary lesions. Fully developed glands were deprived of prolactin, hydrocortisone, and aldosterone for 14 days, resulting in the regression of the glands but not the mammary lesions. […]
The extent of the area occupied by the mammary lesions was quantitated by projecting an image of the gland onto a digitation pad. […] The space covered by each of the unregressed structures was also outlined on the digitization pad and quantitated by the computer.

HT-29 = assay: Apoptosis/Necrosis by fluorescent microscopy (acridine orange and ethidium bromide); format: cell-based, human
Procedure: (§1) Drug stock solutions were made in 100% DMSO then diluted with RPMI media for cell culture testing. All drug solutions were prepared fresh on the day of testing. The cultured cells were obtained at passage #118 and grown in RPMI media supplemented with 5% fetal calf serum, and 2 mM glutamine, 100 U/ml penicillin, 100 U/ml streptomycin, and 0.25 μg/ml amphotericin. The cultures were maintained in a humidified atmosphere of 95% air and 5% CO2 at 37° C. The cultures were passaged at preconfluent densities using a solution of 0.05% trypsin and 0.53 mM EDTA. All experiments involved HT-29 cells between passages 120 and 140, except for the compound of Example 29 which involved SW-480 cell line. Cells were plated at the following densities to obtain cultures used for the experiments: 500 cells/well for 96 well flat-bottom microtiter plates, 1×10^6 cells 2 per 25 cm^2 flask.
Apoptosis and necrosis were measured using an assay that allowed for the simultaneous measurement of both types of cell death based on morphological characteristics of apoptotic cells (i.e., condensed chromatin) and membrane permeability. Drug preparation and cell culture conditions were the same as for the SRB assay described above. Confluent cultures were established in 25 cm^2 flasks. The cultures were assayed for apoptosis and necrosis by fluorescent microscopy following labeling with acridine orange and ethidium bromide. Floating and attached cells were collected by trypsinization and washed three times in PBS. One ml aliquots of 1×10^6 cells were centrifuged (300 g). The pellet was resuspended in 25 μl media and 1 μl of a dye mixture containing 100 μg/ml acridine orange and 100 μg/ml ethidium bromide prepared in PBS and mixed gently. Ten μl of mixture was placed on a microscope slide and covered with a 22 mm^2 coversilp and examined under 40× dry objectives using epillumination and filter combination.
An observer blinded to the identity of the treatments scored at least 100 cells per sample. Apoptotic cells were identified by nuclear condensation of chromatin stained by the acridine orange or ethidium bromide, respectively. Necrotic cells were identified by uniform labelling of the cell with ethidium bromide.

SW-480 cell line = assay: Tumor cell growth inhibition, Sulforhodamine B (SRB) protein binding assay, SW-480; format: cell-based; details: Homo sapiens, SW480, 144 h, SW-480, six days exposure, read-out: Single Dose Percent Inhibition
Procedure: as §1
Tumor cell growth inhibition was assessed using the Sulforhodamine B (SRB) protein binding assay. In this assay, tumor cells were plated in 96-well plates and treated with drug-containing media for six days (continuous exposure). […] The dye was then solubilized, and the optical density of the resulting solution was determined on a 96-well plate reader. […]
For each experiment, an IC50 value was determined, if possible, and used for comparative purposes. […]

precancerous lesions = details: background; cited from earlier work
prostaglandin synthesis = details: background; cited from earlier work
[2] = background; cited from earlier work
colonic polyps = details: patients taking the drug; cited from earlier work
[3] = background; sulfoxide itself; cited from earlier work
[4] = background; cited from earlier work; remark: listed apart in the source

SMILES: COc1cc(/C=C2/C(C)=C(CC(=O)O)c3cc(F)ccc32)cc(OC)c1OC [Example 1, (Z)-5-fluoro-2-methyl-1-(3,4,5-trimethoxybenzylidene)-3-indenyl-acetic acid]
- inhibition at 10 µM ([1]; 10 μM): 50%
- inhibition at 100 µM ([1]; 100 μM): 100%
- % Apoptotic Cells (HT-29; 200 μM): > 90%

SMILES: COc1cc(/C=C2/C(C)=C(CC(=O)O)c3cc(F)ccc32)cc(Br)c1OC [Example 29, (Z)-5-fluoro-2-methyl-1-(3-bromo-4,5-dimethoxybenzylidene)-3-indenyl-acetic acid]
- inhibition at 100 µM (SW-480 cell line): 80%

SMILES: COc1ccc(/C=C2/C(C)=C(CC(=O)O)c3cc(F)ccc32)cc1 [Example 11, (Z)-5-fluoro-2-methyl-1-(4-methoxybenzylidene)-3-indenyl-acetic acid]
- % Apoptotic Cells (HT-29; 200 μM): > 90%

SMILES: CC1=C(CC(=O)O)c2cc(F)ccc2/C1=C\c1ccccc1 [Example 10, (Z)-5-fluoro-2-methyl-1-benzylidene-3-indenyl-acetic acid]
- % Apoptotic Cells (HT-29; 300 μM): 90%

SMILES: COc1ccc(/C=C2/C(C)=C(CC(=O)O)c3cc(F)ccc32)c(OC)c1OC [Example 7, (Z)-5-fluoro-2-methyl-1-(2,3,4-trimethoxybenzylidene)-3-indenyl-acetic acid]
- % Apoptotic Cells (HT-29; 200 μM): > 90%

SMILES: CC1=C(CC(=O)O)c2cc(F)ccc2/C1=C\c1ccc(S(C)(=O)=O)cc1 [sulfone]
- inhibition of precancerous lesions (precancerous lesions): active as an inhibitor of precancerous lesions
- prostaglandin synthesis inhibition (prostaglandin synthesis): inactive as an inhibitor of prostaglandin synthesis

SMILES: CSc1ccc(/C=C2/C(C)=C(CC(=O)O)c3cc(F)ccc32)cc1 [Sulindac Sulfide]
- prostaglandin synthesis inhibition (prostaglandin synthesis): active moiety as a prostaglandin synthesis inhibitor
- side effects [2]: associated with the side effects of conventional NSAIDs

SMILES: COc1cc(OC)c(/C=C2/C(C)=C(CC(=O)O)c3cc(F)ccc32)c(OC)c1 [Example 4, (Z)-5-fluoro-2-methyl-1-(2,4,6-trimethoxybenzyildene)-3-indenyl-acetic acid]
- % Apoptotic Cells (HT-29; 200 μM): > 90%

SMILES: CC1=C(CC(=O)O)c2cc(F)ccc2/C1=C\c1ccc([S+](C)[O-])cc1 (stereo not drawn) [Sulindac]
- effect on polyps (colonic polyps): Polyps virtually disappear
- anti-arthritic activity [3]: believed to be inactive as an anti-arthritic agent
- metabolic conversion [4]: converted by liver enzymes to the corresponding sulfide; also recorded: metabolized to sulfone compound

SMILES: CC1=C(CC(=O)O)c2cc(F)ccc2/C1=C\c1c(Cl)cccc1Cl [Example 6, (Z)-5-fluoro-2-methyl-1-(2,6-dichlorobenzylidene)-3-indenyl-acetic acid]
- % Apoptotic Cells (HT-29; 200 μM): 60%
- % Necrotic Cells (HT-29; 200 μM): 40%

SMILES: COc1cc(OC)c(OC)cc1/C=C1/C(C)=C(CC(=O)O)c2cc(F)ccc21 [Example 8, (Z)-5-fluoro-2-methyl-1-(2,4,5-trimethoxybenzylidene)-3-indenyl-acetic acid]
- % Apoptotic Cells (HT-29; 200 μM): > 90%
